The record followed here is patent KR20170078259A, “아이소스테비올을 포함하는 피부상태 개선용 조성물” (주식회사 엘지생활건강, priority 2015, dated 2017).

Molecules are shown by their SMILES. “Also recorded” adds a separate entry of the source.

Experiment [1] in a line: Anti-glycation (L-arginine and glucose). It is filed as biochemical. The settings on record: for inhibition rate: 70 °C, 4 h, 420 nm.
The subject of experiment [2] is B-16 mouse melanoma cell (쥐의 멜라노마 세포). Briefly: Total melanin increase in B-16 mouse melanoma cells (darkening effect). It is filed as cell-based. The conditions noted are these: for melanin production: absorbance at 400 nm per 1×10^6 cells.
In experiment [3] the target is T1, elastase derived from human leukocytes (사람의 백혈구 세포로부터 유래한 엘라스테이즈) (Homo sapiens, UniProt P08246).
T1 construct: 사람의 백혈구 세포로부터 유래한 엘라스테이즈를 사용하였고; from tissue; host or cells: human leukocytes
T1 sequence (P08246 30-267): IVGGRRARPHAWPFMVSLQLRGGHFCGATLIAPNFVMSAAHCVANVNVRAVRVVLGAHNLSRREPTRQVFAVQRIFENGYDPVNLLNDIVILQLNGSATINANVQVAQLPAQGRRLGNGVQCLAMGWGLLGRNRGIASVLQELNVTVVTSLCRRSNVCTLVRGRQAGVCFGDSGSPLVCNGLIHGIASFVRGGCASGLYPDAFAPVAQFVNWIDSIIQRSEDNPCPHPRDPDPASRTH
Description: Elastase activity inhibition (MeOSuc-Ala-Ala-Pro-Val-pNA substrate). The format is biochemical. The conditions noted are these: for elastase activity inhibition (in words): compared with quercetin; for enzyme activity: slope of absorbance at 405 nm.

The test system of experiment [4] is human-derived fibroblasts, type I collagen (인간 유래 섬유아세포, 제1형 콜라겐). Description: Type I collagen synthesis promotion in human-derived fibroblasts (PICP EIA kit). The format is cell-based.
Setting [5] is: 10 ppm, room temperature, 20 min, n = 3, read-out: inhibition rate.

As a reminder, the inhibition is the percentage by which the read-out fell short of the control.

Turning to `N=C(N)NN` [Aminoguanidine, reference compound], the inhibition rate in experiment [1] (aminoguanidine positive control, 55 ppm) was determined as 54.89%.

In turn, `C=C[C@@]1(C)CC(=O)[C@]2(O)[C@@]3(C)[C@@H](O)CCC(C)(C)[C@@H]3[C@H](O)[C@H](OC(C)=O)[C@@]2(C)O1` [Forskolin, reference compound] gave a melanin production in experiment [2] (10 ppm, 3 days) of 0.792 abs. Further, in experiment [2] (Mus musculus, 72 h, 10 ppm, 3 days, relative to control, read-out: increase rate (total melanin)), the activation at 10 ppm amounted to 140%.

For `O=c1c(O)c(-c2ccc(O)c(O)c2)oc2cc(O)cc(O)c12` [Quercetin, reference compound], in experiment [3] (setting [5]), the inhibition at 10 ppm came out at 69.2%.

As to `O=C1O[C@H]([C@@H](O)CO)C(O)=C1O` [비타민C, reference compound], the activation at 52.85 ppm in experiment [4] (Homo sapiens, Fibroblast, vitamin C positive control, 52.85 ppm, 48 h, relative to negative control, n = 4, read-out: increase rate (type I collagen production)) is 64.3%. In addition, the “type I collagen production” value in experiment [4] (vitamin C positive control, 52.85 ppm, 48 h, n = 4) worked out at 246.8 ng/mL.

Turning to `C[C@@]12CC[C@@H]3[C@@](CC[C@H]4[C@@]3(C)CCC[C@@]4(C)C(=O)O)(CC1=O)C2` [화학식 1의 화합물, (4α,8β,13β)-13-Methyl-16-oxo-17-norkauran-18-oic acid], the melanin production in experiment [2] (1 ppm, 3 days) was determined as 0.662 abs; in experiment [2] (20 ppm as printed in table, 3 days) it was 0.831 abs. For the same molecule, the “total melanin increase effect (in words)” value in experiment [2] (10 ppm, compared with forskolin) is 10 ppm에서도 상당히 우수한 멜라닌 총량 증가 효과. For the same molecule, the activation at 1 ppm in experiment [2] (Mus musculus, 72 h, 1 ppm, 3 days, relative to control, read-out: increase rate (total melanin)) came to 101%; in experiment [4] (Homo sapiens, Fibroblast, 1 ppm, 48 h, relative to negative control, n = 4, read-out: increase rate (type I collagen production)), 24.9%. Further, the activation at 20 ppm in experiment [2] (Mus musculus, 72 h, 20 ppm as printed in table, 3 days, relative to control, read-out: increase rate (total melanin)) amounted to 152%. The “elastase activity inhibition (in words)” value in experiment [3] (10 ppm) was “엘라스테이즈 활성 저해 효과가 양성대조군인 퀘르세틴에 상응하는 정도로 높게 나타났으며”; in experiment [3] (20 ppm), “퀘르세틴보다 우수한 엘라스테이즈 활성 저해 효과가 나타나”. Also, the inhibition at 10 ppm in experiment [3] (setting [5]) was 55.8%. Further, the enzyme activity is on record as 4.6 in experiment [3] (10 ppm, room temperature, 20 min, n = 3) and 3.2 in experiment [3] (20 ppm, room temperature, 20 min, n = 3). In experiment [3] (20 ppm, room temperature, 20 min, n = 3, read-out: inhibition rate), the inhibition at 20 ppm was found to be 69.2%. Moreover, the inhibition rate in experiment [1] (25 ppm) is listed as 51.12%; in experiment [1] (50 ppm) it was 69.22%. Moreover, the “anti-glycation effect (in words)” value in experiment [1] (compared with aminoguanidine) is given as “항당화 효과가 더욱 뛰어남”. The “collagen synthesis effect (in words)” value in experiment [4] (1 and 10 ppm, compared with vitamin C) was “농도 의존적으로 콜라겐 합성량이 증가되었고; also recorded: 비타민C를 적용한 경우보다 더 낮은 농도에서 유사한 콜라겐 합성 효과를 나타내었다”. Also, the “type I collagen production” value came out at 187.6 ng/mL in experiment [4] (1 ppm, 48 h, n = 4) and 265.5 ng/mL in experiment [4] (10 ppm, 48 h, n = 4). Moreover, the activation at 10 ppm in experiment [4] (Homo sapiens, Fibroblast, 10 ppm, 48 h, relative to negative control, n = 4, read-out: increase rate (type I collagen production)) worked out at 76.8%.
